# Laboratory results taken from ChEMBL document CHEMBL3885881, “DrugMatrix”.
# Species on record: Rattus norvegicus
# Test: DrugMatrix - Regimen: Daily Repeat
# Format: toxicity, organism-based, Sprague-Dawley
# Set-up: regimen Daily Repeat, gender Male, age 6-8 weeks
# Conditions: in vivo, po, route oral GAVAGE, vehicle 100 % WATER; for ABSOLUTE BASOPHIL / ABSOLUTE EOSINOPHIL / ABSOLUTE LYMPHOCYTE / ABSOLUTE MONOCYTE / ABSOLUTE SEGMENTED NEUTROPHIL / BASOPHIL / EOSINOPHIL / ERYTHROCYTE COUNT / HEMATOCRIT / HEMOGLOBIN / LEUKOCYTE COUNT / LYMPHOCYTE / MEAN CORPUSCULAR HEMOGLOBIN / MEAN CORPUSCULAR HEMOGLOBIN CONCENTRATION / MEAN CORPUSCULAR VOLUME / MONOCYTE / NEUTROPHIL / NUCLEATED RED BLOOD CELLS / PLATELET COUNT: tissue Blood; for ALANINE AMINOTRANSFERASE / ALBUMIN / ALKALINE PHOSPHATASE / ASPARTATE AMINOTRANSFERASE / BLOOD UREA NITROGEN / CARBON DIOXIDE / CHLORIDE / CHOLESTEROL / CREATINE PHOSPHOKINASE / CREATININE / GLUCOSE / LACTATE DEHYDROGENASE / LIPASE / PHOSPHORUS / POTASSIUM / SODIUM / TOTAL BILIRUBIN / TOTAL PROTEIN / URIC ACID: tissue Plasma
# [1] = 0 mg/kg, 72 h, dose level Control, time 3 day
# [2] = 0 mg/kg, 120 h, dose level Control, time 5 day
# [3] = 100 mg/kg, 72 h, dose level Low, time 3 day
structure (smiles),measurement,setting,value
CC(C)(S)[C@@H](N)C(=O)O [PENICILLAMINE],ABSOLUTE BASOPHIL,[1],0 CELLS/uL
same,ABSOLUTE EOSINOPHIL,[1],0 CELLS/uL
same,ABSOLUTE LYMPHOCYTE,[1],7802.17 CELLS/uL
same,ABSOLUTE MONOCYTE,[1],13.5 CELLS/uL
same,ABSOLUTE SEGMENTED NEUTROPHIL,[1],617.67 CELLS/uL
same,BASOPHIL,[1],0%
same,EOSINOPHIL,[1],0%
same,ERYTHROCYTE COUNT,[1],5.35 x10E6/uL
same,HEMATOCRIT,[1],33.02%
same,HEMOGLOBIN,[1],12.88 G/DL
same,LEUKOCYTE COUNT,[1],8.43 x10E3/uL
same,LYMPHOCYTE,[1],92.67%
same,MEAN CORPUSCULAR HEMOGLOBIN,[1],24.12 pg
same,MEAN CORPUSCULAR HEMOGLOBIN CONCENTRATION,[1],39.03 G/DL
same,MEAN CORPUSCULAR VOLUME,[1],61.8 fL
same,MONOCYTE,[1],0.17%
same,NEUTROPHIL,[1],7.17%
same,NUCLEATED RED BLOOD CELLS,[1],0 /100WBC
same,PLATELET COUNT,[1],1124.83 x10E3/uL
same,ALANINE AMINOTRANSFERASE,[1],54.17 u/L
same,ALBUMIN,[1],4.07 G/DL
same,ALKALINE PHOSPHATASE,[1],383.83 u/L
same,ASPARTATE AMINOTRANSFERASE,[1],82.17 u/L
same,BLOOD UREA NITROGEN,[1],13.67 mg/dL
same,CARBON DIOXIDE,[1],31 mmol/L
same,CHLORIDE,[1],100.83 MEQ/L
same,CHOLESTEROL,[1],65.17 mg/dL
same,CREATINE PHOSPHOKINASE,[1],228.33 u/L
same,CREATININE,[1],0.12 mg/dL
same,GLUCOSE,[1],148 mg/dL
same,LACTATE DEHYDROGENASE,[1],97.83 u/L
same,LIPASE,[1],9.17 u/L
same,PHOSPHORUS,[1],9.75 mg/dL
same,POTASSIUM,[1],5.85 MEQ/L
same,SODIUM,[1],147.02 MEQ/L
same,TOTAL BILIRUBIN,[1],0.18 mg/dL
same,TOTAL PROTEIN,[1],6.1 G/DL
same,URIC ACID,[1],0.5 mg/dL
same,ABSOLUTE BASOPHIL,[2],0 CELLS/uL
same,ABSOLUTE EOSINOPHIL,[2],0 CELLS/uL
same,ABSOLUTE LYMPHOCYTE,[2],10538 CELLS/uL
same,ABSOLUTE MONOCYTE,[2],15.83 CELLS/uL
same,ABSOLUTE SEGMENTED NEUTROPHIL,[2],762.83 CELLS/uL
same,BASOPHIL,[2],0%
same,EOSINOPHIL,[2],0%
same,ERYTHROCYTE COUNT,[2],5.49 x10E6/uL
same,HEMATOCRIT,[2],34.63%
same,HEMOGLOBIN,[2],13.72 G/DL
same,LEUKOCYTE COUNT,[2],11.32 x10E3/uL
same,LYMPHOCYTE,[2],92.67%
same,MEAN CORPUSCULAR HEMOGLOBIN,[2],24.97 pg
same,MEAN CORPUSCULAR HEMOGLOBIN CONCENTRATION,[2],39.57 G/DL
same,MEAN CORPUSCULAR VOLUME,[2],63.05 fL
same,MONOCYTE,[2],0.17%
same,NEUTROPHIL,[2],7.17%
same,NUCLEATED RED BLOOD CELLS,[2],0.17 /100WBC
same,PLATELET COUNT,[2],802 x10E3/uL
same,ALANINE AMINOTRANSFERASE,[2],50.5 u/L
same,ALBUMIN,[2],4.07 G/DL
same,ALKALINE PHOSPHATASE,[2],336.83 u/L
same,ASPARTATE AMINOTRANSFERASE,[2],81 u/L
same,BLOOD UREA NITROGEN,[2],14.17 mg/dL
same,CARBON DIOXIDE,[2],32 mmol/L
same,CHLORIDE,[2],98.33 MEQ/L
same,CHOLESTEROL,[2],69.17 mg/dL
same,CREATINE PHOSPHOKINASE,[2],253.33 u/L
same,CREATININE,[2],0.13 mg/dL
same,GLUCOSE,[2],153.67 mg/dL
same,LACTATE DEHYDROGENASE,[2],157 u/L
same,LIPASE,[2],9 u/L
same,PHOSPHORUS,[2],10.78 mg/dL
same,POTASSIUM,[2],6.11 MEQ/L
same,SODIUM,[2],144.57 MEQ/L
same,TOTAL BILIRUBIN,[2],0.15 mg/dL
same,TOTAL PROTEIN,[2],6.05 G/DL
same,URIC ACID,[2],0.73 mg/dL
same,ABSOLUTE BASOPHIL,[3],0 CELLS/uL
same,ABSOLUTE EOSINOPHIL,[3],0 CELLS/uL
same,ABSOLUTE LYMPHOCYTE,[3],8040.67 CELLS/uL
same,ABSOLUTE MONOCYTE,[3],62.33 CELLS/uL
same,ABSOLUTE SEGMENTED NEUTROPHIL,[3],563.67 CELLS/uL
same,BASOPHIL,[3],0%
same,EOSINOPHIL,[3],0%
same,ERYTHROCYTE COUNT,[3],5.32 x10E6/uL
same,HEMATOCRIT,[3],34.33%
same,HEMOGLOBIN,[3],13 G/DL
same,LEUKOCYTE COUNT,[3],8.67 x10E3/uL
same,LYMPHOCYTE,[3],92.67%
same,MEAN CORPUSCULAR HEMOGLOBIN,[3],24.53 pg
same,MEAN CORPUSCULAR HEMOGLOBIN CONCENTRATION,[3],37.9 G/DL
same,MEAN CORPUSCULAR VOLUME,[3],64.67 fL
same,MONOCYTE,[3],0.67%
same,NEUTROPHIL,[3],6.67%
same,NUCLEATED RED BLOOD CELLS,[3],0 /100WBC
same,PLATELET COUNT,[3],991.33 x10E3/uL
same,ALANINE AMINOTRANSFERASE,[3],51 u/L
same,ALBUMIN,[3],4.03 G/DL
same,ALKALINE PHOSPHATASE,[3],403.33 u/L
same,ASPARTATE AMINOTRANSFERASE,[3],82.33 u/L
same,BLOOD UREA NITROGEN,[3],13.67 mg/dL
same,CARBON DIOXIDE,[3],32.33 mmol/L
same,CHLORIDE,[3],100.33 MEQ/L
same,CHOLESTEROL,[3],73.33 mg/dL
same,CREATINE PHOSPHOKINASE,[3],332 u/L
same,CREATININE,[3],0.11 mg/dL
same,GLUCOSE,[3],145.67 mg/dL
same,LACTATE DEHYDROGENASE,[3],165 u/L
same,LIPASE,[3],9 u/L
same,PHOSPHORUS,[3],10 mg/dL
same,POTASSIUM,[3],5.88 MEQ/L
same,SODIUM,[3],145.23 MEQ/L
same,TOTAL BILIRUBIN,[3],0.13 mg/dL
same,TOTAL PROTEIN,[3],5.93 G/DL
same,URIC ACID,[3],0.73 mg/dL
